Test results: patent US12325697B2 (Nimbus Clio, Inc., priority 2021, dated 2025)

Columns and labels:
[1] = target: Recombinant human Cbl-b (aa 36-427) (Homo sapiens (Human), UniProt Q13191); assay: Cbl-b Biochemical Assay (TR-FRET); conditions: read-out: TR-FRET hCbl-b IC50
Procedure, shortened: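 Two-step TR-FRET: 6 nM biotinylated Cbl-b preincubated 30-60 min with compound, then 60 min at RT with 1-2.5 nM Src-Zap70 and 0.5 mM ATP in HEPES pH 7.0 buffer, 1% DMSO. Stopped with 5 mM EDTA plus 100 nM UBE2D2-Ub-FL-BODIPY and 1 nM streptavidin-Tb, 60 min; 520 nm signal; IC50 from 4-parameter fit.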

[2] = target: Recombinant human c-Cbl (aa 47-435) (Homo sapiens (Human), UniProt P22681); assay: c-Cbl Biochemical Assay (TR-FRET)
Procedure, shortened: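 Biotinylated c-Cbl (6 nM) preincubated 30 min RT with compound, then reacted 60-90 min with Src-Zap70 (2.5-10 nM) and 0.5 mM ATP, pH 7.0 HEPES buffer. Stopped with EDTA; 100 nM Bodipy-ubiquitinated UBE2D2 binding read by TR-FRET after 60 min; IC50 from 4-parameter fit.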

Sequence of Recombinant human Cbl-b (aa 36-427) (Q13191 36-427): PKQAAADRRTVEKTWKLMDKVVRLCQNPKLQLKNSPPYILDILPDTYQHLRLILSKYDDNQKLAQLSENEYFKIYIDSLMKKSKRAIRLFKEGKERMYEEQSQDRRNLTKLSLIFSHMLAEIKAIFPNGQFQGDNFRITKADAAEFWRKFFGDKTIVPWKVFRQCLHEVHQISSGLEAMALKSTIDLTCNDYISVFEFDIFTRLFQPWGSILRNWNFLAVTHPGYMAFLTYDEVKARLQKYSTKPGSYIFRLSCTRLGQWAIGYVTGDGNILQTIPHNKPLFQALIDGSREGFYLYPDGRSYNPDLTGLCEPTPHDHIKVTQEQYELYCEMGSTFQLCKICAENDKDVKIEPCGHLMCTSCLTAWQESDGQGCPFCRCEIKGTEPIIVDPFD
Sequence of Recombinant human c-Cbl (aa 47-435) (P22681 47-435): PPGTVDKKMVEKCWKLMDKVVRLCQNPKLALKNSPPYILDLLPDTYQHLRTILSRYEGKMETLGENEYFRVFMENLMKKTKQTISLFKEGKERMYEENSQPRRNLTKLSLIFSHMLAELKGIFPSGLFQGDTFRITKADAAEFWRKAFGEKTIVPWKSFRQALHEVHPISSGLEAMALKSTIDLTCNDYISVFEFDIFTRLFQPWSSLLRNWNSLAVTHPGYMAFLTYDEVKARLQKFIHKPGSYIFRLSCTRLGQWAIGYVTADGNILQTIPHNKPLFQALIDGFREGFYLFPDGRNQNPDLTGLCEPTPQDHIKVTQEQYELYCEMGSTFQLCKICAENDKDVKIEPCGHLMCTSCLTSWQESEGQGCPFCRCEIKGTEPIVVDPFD

Structure (SMILES)	IC50 [1] [nM]	IC50 [2] [nM]
COCC(NCc1cc(F)c2c(c1)C(=O)N(c1cc(-c3ccc(C#N)cc3-c3nncn3C)cc(C3CC3)n1)C2)C(F)(F)F (stereo not drawn) [ANW-3, 4-[2-Cyclopropyl-6-(4-fluoro-1-oxo-6-{[(1,1,1-trifluoro-3-methoxypropan-2-yl)amino]methyl}-3H-isoindol-2-yl)pyridin-4-yl]-3-(4-methyl-1,2,4-triazol-3-yl)benzonitrile]	≤ 200	≤ 200
CN1CCC[C@@H]1COCc1cc2c(c(C(F)(F)F)c1)CN(c1cc(-c3ccc(F)cc3-c3nncn3C)cc(C3CC3)n1)C2=O [AHO-4, 2-{6-Cyclopropyl-4-[4-fluoro-2-(4-methyl-1,2,4-triazol-3-yl)phenyl]pyridin-2-yl}-6-({[(2R)-1-methylpyrrolidin-2-yl]methoxy}methyl)-4-(trifluoromethyl)-3H-isoindol-1-one]	≤ 200	≤ 200
Cn1cnnc1-c1cc(F)ccc1-c1cc(C2CC2)nc(N2Cc3cc(Cl)c(CN[C@@H]4CCC[C@@H]4O)cc3C2=O)c1 [ANR-2, 5-Chloro-2-{6-cyclopropyl-4-[4-fluoro-2-(4-methyl-1,2,4-triazol-3-yl)phenyl]pyridin-2-yl}-6-({[(1R,2S)-2-hydroxycyclopentyl]amino}methyl)-3H-isoindol-1-one]	≤ 200	≤ 200
Cn1cnnc1-c1cc(C#N)ccc1-c1cc(C2CC2)nc(N2Cc3ccc(OC[C@@H](O)CO)cc3C2=O)c1 [AJM-3, (S)-4-(2-Cyclopropyl-6-(6-(2,3-dihydroxypropoxy)-1-oxoisoindolin-2-yl)pyridin-4-yl)-3-(4-methyl-4H-1,2,4-triazol-3-yl)benzonitrile]	≤ 200	≤ 200
Cn1cnnc1-c1cc(C#N)ccc1-c1cc(C2CC2)nc(N2Cc3ccc(CNCC4(C#N)CCC4)cc3C2=O)c1 [AKF-2, 4-{2-[6-({[(1-Cyanocyclobutyl)methyl]amino}methyl)-1-oxo-3H-isoindol-2-yl]-6-cyclopropylpyridin-4-yl}-3-(4-methyl-1,2,4-triazol-3-yl)benzonitrile]	≤ 200	≤ 200
Cn1cnnc1-c1cc(C#N)ccc1-c1cc(C2CC2)nc(N2Cc3ccc(CNC[C@@H]4CCOC4)cc3C2=O)c1 [ANY-2, 4-{2-Cyclopropyl-6-[1-oxo-6-({[(3S)-oxolan-3-ylmethyl]amino}methyl)-3H-isoindol-2-yl]pyridin-4-yl}-3-(4-methyl-1,2,4-triazol-3-yl)benzonitrile]	≤ 200	≤ 200
COCCNCc1cc(Br)c2c(c1)C(=O)N(c1cc(-c3ccc(C#N)cc3-c3nncn3C)cc(C3CC3)n1)C2 [ALB-2, 4-[2-(4-Bromo-6-{[(2-methoxyethyl)amino]methyl}-1-oxo-3H-isoindol-2-yl)-6-cyclopropylpyridin-4-yl]-3-(4-methyl-1,2,4-triazol-3-yl)benzonitrile]	≤ 200	≤ 200
Cn1cnnc1-c1cc(C#N)ccc1-c1cc(C2CC2)nc(N2Cc3c(F)cc(CNCC4(C)CCC4)cc3C2=O)c1 [ALO-2, 4-{2-Cyclopropyl-6-[4-fluoro-6-({[(1-methylcyclobutyl)methyl]amino}methyl)-1-oxo-3H-isoindol-2-yl]pyridin-4-yl}-3-(4-methyl-1,2,4-triazol-3-yl)benzonitrile]	≤ 200	≤ 200
CN(Cc1ccc2c(c1)C(=O)N(c1cc(-c3ccc(C#N)cc3-c3nncn3C)cc(C3CC3)n1)C2)CC1CC1 [AIX-2, 4-[2-Cyclopropyl-6-(6-{[(cyclopropylmethyl)(methyl)amino]methyl}-1-oxo-3H-isoindol-2-yl)pyridin-4-yl]-3-(4-methyl-1,2,4-triazol-3-yl)benzonitrile]	≤ 200	≤ 200
Cn1cnnc1-c1cc(C#N)ccc1-c1cc(C2CC2)nc(N2Cc3cnc(CNCC4CCC4)cc3C2=O)c1 [ALF-2, 4-[2-(6-{[(Cyclobutylmethyl)amino]methyl}-1-oxo-3H-pyrrolo[3,4-c]pyridin-2-yl)-6-cyclopropylpyridin-4-yl]-3-(4-methyl-1,2,4-triazol-3-yl)benzonitrile]	≤ 200	≤ 200
Cn1cnnc1-c1cc(C#N)ccc1-c1cc(C2CC2)nc(N2Cc3ccc(CNCC4COC4)cc3C2=O)c1 [AHZ-2, 4-[2-Cyclopropyl-6-(6-{1[(oxetan-3-ylmethyl)amino]methyl}-1-oxo-3H-isoindol-2-yl)pyridin-4-yl]-3-(4-methyl-1,2,4-triazol-3-yl)benzonitrile]	≤ 200	≤ 200
Cn1cnnc1-c1cc(F)ccc1-c1cc(C2CC2)nc(N2Cc3c(F)cc(CNCC4(O)CCC4)cc3C2=O)c1 [AMJ-1, 2-{6-Cyclopropyl-4-[4-fluoro-2-(4-methyl-1,2,4-triazol-3-yl)phenyl]pyridin-2-yl}-4-fluoro-6-({[(1-hydroxycyclobutyl)methyl]amino}methyl)-3H-isoindol-1-one]	≤ 200	≤ 200
C[C@H](NC1COC1)c1ccc2c(c1)C(=O)N(c1cc(-c3ccc(C#N)cc3-c3nncn3C)cc(C3CC3)n1)C2 [AOB-2, (S)-4-(2-Cyclopropyl-6-(6-(1-(oxetan-3-ylamino)ethyl)-1-oxoisoindolin-2-yl)pyridin-4-yl)-3-(4-methyl-4H-1,2,4-triazol-3-yl)benzonitrile]	≤ 200	≤ 200
Cn1cnnc1-c1cc(C#N)ccc1-c1cc(C2CC2)nc(N2Cc3c(F)cc(CN4C[C@@H]5C[C@H]4CO5)cc3C2=O)c1 [AKR-3, 4-(2-Cyclopropyl-6-{4-fluoro-6-[(1S,4S)-2-oxa-5-azabicyclo[2.2.1]heptan-5-ylmethyl]-1-oxo-3H-isoindol-2-yl}pyridin-4-yl)-3-(4-methyl-1,2,4-triazol-3-yl)benzonitrile]	≤ 200	≤ 200
Cn1cnnc1-c1cc(C#N)ccc1-c1cc(C2CC2)nc(N2Cc3c(F)cc(CNC4CC4)cc3C2=O)c1 [ALR-1, 4-(2-Cyclopropyl-6-{6-[(cyclopropylamino)methyl]-4-fluoro-1-oxo-3H-isoindol-2-yl}pyridin-4-yl)-3-(4-methyl-1,2,4-triazol-3-yl)benzonitrile]	≤ 200	≤ 200
Cn1cnnc1-c1cc(C#N)ccc1-c1cc(C2CC2)nc(N2Cc3ccc(CNCC4(C)CCC4)cc3C2=O)c1 [ALP-1, 4-{2-Cyclopropyl-6-[6-({[(1-methylcyclobutyl)methyl]amino}methyl)-1-oxo-3H-isoindol-2-yl]pyridin-4-yl}-3-(4-methyl-1,2,4-triazol-3-yl)benzonitrile]	≤ 200	≤ 200
Cn1cnnc1-c1cc(C#N)ccc1-c1cc(C2CC2)nc(N2Cc3c(F)cc(CN4C[C@]5(C)C[C@H]4CO5)cc3C2=O)c1 [ANU-3, 4-(2-cyclopropyl-6-(4-fluoro-6-(((1S,4S)-1-methyl-2-oxa-5-azabicyclo[2.2.1]heptan-5-yl)methyl)-1-oxoisoindolin-2-yl)pyridin-4-yl)-3-(4-methyl-4H-1,2,4-triazol-3-yl)benzonitrile]	≤ 200	≤ 200
CC[C@@H](O)CNCc1ccc2c(c1)C(=O)N(c1cc(-c3ccc(C#N)cc3-c3nncn3C)cc(C3CC3)n1)C2 [AIP-2, 4-{2-Cyclopropyl-6-[6-({[(2R)-2-hydroxybutyl]amino}methyl)-1-oxo-3H-isoindol-2-yl]pyridin-4-yl}-3-(4-methyl-1,2,4-triazol-3-yl)benzonitrile]	≤ 200	≤ 200
Cn1cnnc1-c1cc(C#N)ccc1-c1cc(C2CC2)nc(N2Cc3c(F)cc(CN4CC5(COC5)C4)cc3C2=O)c1 [AMS-2, 4-[2-Cyclopropyl-6-(4-fluoro-6-{2-oxa-6-azaspiro [3.3]heptan-6-ylmethyl}-1-oxo-3H-isoindol-2-yl)pyridin-4-yl]-3-(4-methyl-1,2,4-triazol-3-yl)benzonitrile]	≤ 200	≤ 200
Cn1cnnc1-c1cc(C#N)ccc1-c1cc(C2CC2)nc(N2Cc3c(F)cc(CN4CC5CC5C4)cc3C2=O)c1 (stereo not drawn) [AKQ-2, 4-[2-(6-{3-Azabicyclo[3.1.0]hexan-3-ylmethyl}-4-fluoro-1-oxo-3H-isoindol-2-yl)-6-cyclopropylpyridin-4-yl]-3-(4-methyl-1,2,4-triazol-3-yl)benzonitrile]	≤ 200	≤ 200
COCC1(NCc2ccc3c(c2)C(=O)N(c2cc(-c4ccc(C#N)cc4-c4nncn4C)cc(C4CC4)n2)C3)CCC1 [AJG-2, 4-(2-cyclopropyl-6-(6-(((1-(methoxymethyl)cyclobutyl)amino)methyl)-1-oxoisoindolin-2-yl)pyridin-4-yl)-3-(4-methyl-4H-1,2,4-triazol-3-yl)benzonitrile]	≤ 200	≤ 200
Cn1cnnc1-c1cc(C#N)ccc1-c1cc(C2CC2)nc(N2Cc3c(F)cc(CN4CC[C@H]5C[C@H]54)cc3C2=O)c1 [AMX-3, 4-(2-{6-[(1R,5S)-2-Azabicyclo[3.1.0]hexan-2-ylmethyl]-4-fluoro-1-oxo-3H-isoindol-2-yl}-6-cyclopropylpyridin-4-yl)-3-(4-methyl-1,2,4-triazol-3-yl)benzonitrile]	≤ 200	≤ 200
CNCCOCc1ccc2c(c1)C(=O)N(c1cc(-c3ccc(C#N)cc3-c3nncn3C)cc(C3CC3)n1)C2 [AIY-2, 4-[2-Cyclopropyl-6-(6-{[2-(methylamino)ethoxy]methyl}-1-oxo-3H-isoindol-2-yl)pyridin-4-yl]-3-(4-methyl-1,2,4-triazol-3-yl)benzonitrile]	≤ 200	≤ 200
CN(Cc1cc(F)c2c(c1)C(=O)N(c1cc(-c3ccc(C#N)cc3-c3nncn3C)cc(C3CC3)n1)C2)CC1CCC1 [AKT-1, 4-[2-(6-{[(Cyclobutylmethyl)(methyl)amino]methyl}-4-fluoro-1-oxo-3H-isoindol-2-yl)-6-cyclopropylpyridin-4-yl]-3-(4-methyl-1,2,4-triazol-3-yl)benzonitrile]	≤ 200	≤ 200
